The record followed here is US20170122958A1, “Enzymes Functional Probes” (University of Dundee, priority 2013, published 2017).

One test concerns the target Brd2(2)*(Leu383-Ala) (Homo sapiens, UniProt P25440, L383A). Put plainly: ITC reverse titration of protein into compound. It counts as binding. The arrangement: Plasmids of the eight single BET bromodomain constructs Brd2(1), Brd2(2), Brd3(1), Brd3(2), Brd4(1), Brd4(2), Brdt(1) and Brdt(2); His6 (N); made in house; host or cells: E. coli BL21(DE3). To be noted: for ΔH Brd2(2)* (Leu383-Ala) / Kd: ITC 25° C.; for Kd: Kd Brd2(2)* (Leu383-Ala); for Selectivity factor Kd WT/Kd Leu/Ala: 30° C. As to the method: (§1) ITC experiments were carried out on a ITC200 instrument from MicroCal™ Experiments were conducted at 3 different temperatures 15° C., 25° C. and 30° C., while stirring at 1000 rpm. Buffers of proteins, peptide and compounds were matched to 20 mM HEPES pH 7.5 at 25° C. and 100 mM NaCl. Frozen protein was buffer exchanged as described for the DSF experiments. Each titration comprised 1 initial injection of 0.4 μl lasting 0.8 s, followed by 19 injections of 2 μl lasting 4 s each at 2 min intervals. The initial injection was discarded during data analysis. Standard and reverse titrations were conducted depending on the binding partners.
(§2) Reverse titrations were conducted to test the binding of the known ligands and the novel chemical probes to the wild types and the mutants. Experiments were carried out either at 25° C. or 30° C. […] In cases where the compound was solubilized in dimethyl sulfoxide, DMSO concentration was adjusted to 1% both in the syringe and in the cell.
(§3) All the data was fitted to a single binding site model using the Microcal LLC ITC200 Origin software provided by the manufacturer to yield enthalpies of binding (ΔH) and binding constants (Kas). Further thermodynamic parameters were calculated from these values (changes in entropy ΔS, changes in free energy AG and dissociation constants (Kds)).

In a further test the target is Brd2(1)*(Leu110-Ala) (Homo sapiens, UniProt P25440, L110A). Description: ITC reverse titration of protein into compound. It counts as binding. The arrangement: Plasmids of the eight single BET bromodomain constructs Brd2(1), Brd2(2), Brd3(1), Brd3(2), Brd4(1), Brd4(2), Brdt(1) and Brdt(2); His6 (N); made in house; host or cells: E. coli BL21(DE3). Conditions: for ΔH Brd2(1)* (Leu110-Ala): ITC 25° C.; for Selectivity factor Kd WT/Kd Leu/Ala: 30° C. As to the method: as §1, §2, §3
Sequence of Brd2(1)*(Leu110-Ala) (P25440 74-180 L110A limits assumed): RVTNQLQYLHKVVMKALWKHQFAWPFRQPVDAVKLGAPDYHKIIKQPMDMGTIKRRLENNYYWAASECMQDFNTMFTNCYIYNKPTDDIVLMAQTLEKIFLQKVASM

Test [1] concerns Brd2(1) and (2) wild type and leucine to alanine, valine and isoleucine mutants. Put plainly: DSF thermal stabilization (FIG. 15). Type of test: binding, human. To be noted: result in words. As to the method: DSF assays were performed on a LightCycler®480 from Roche or a Mx3005P Real Time PCR machine from Stratagene. […] SYPRO®Orange from Invitrogen Molecular Probes® was used as a reporter dye to monitor the denaturing process of the proteins. Samples were assayed on a 96-well plate with final protein concentrations of 2 μM for the LightCycler®480 and 6 μM for Mx3005P. Compounds were added at a final concentration of 10 μM for the LightCycler®480 and 30 μM for Mx3005P, while the tetra acetylated histone peptide was added to a final concentration of 100 μM and 300 μM respectively. […] The temperature was raised with a step of 0.6° C. per minute from 37° C. to 95° C. with the LightCycler®480 collecting 39 measurements per ° C., and 1° C. per minute from 25° C. to 95° C. with Mx3005P, collecting fluorescence readings at the end of each interval. Each sample was run in triplicates.
Collected data was analysed by IGOR Pro 6, a scientific software tool from Wave Metrics, Inc. Analysis was done following the recommendations of Niesen et al.. Fluorescence intensity was plotted as a function of temperature, generating a sigmoidal curve described by a two-state transition from folded to unfolded protein. Curves were fitted by the following sigmoidal equation: […]
A1 and A2 are the values of minimum and maximum intensities, respectively, x0 is the inflection point and dx is the rate. Fitted curves were differentiated in IGOR Pro 6 and the maximum of the first derivative was identified using the same program. These values correspond to the inflection points of the transition curves and thus to the melting temperatures of the proteins (Tm).

The target of another test is T1, brdt(1)L063A (Homo sapiens, UniProt Q58F21, L63A).
T1 construct: Plasmids of the eight single BET bromodomain constructs Brd2(1), Brd2(2), Brd3(1), Brd3(2), Brd4(1), Brd4(2), Brdt(1) and Brdt(2); His6 (N); made in house; host or cells: E. coli BL21(DE3)
Description: DSF thermal shift. It counts as binding. Conditions: mutant.

A further test addresses T2, brd4(2)L387A (Homo sapiens, UniProt O60885, L387A).
T2 construct: Plasmids of the eight single BET bromodomain constructs Brd2(1), Brd2(2), Brd3(1), Brd3(2), Brd4(1), Brd4(2), Brdt(1) and Brdt(2); His6 (N); made in house; host or cells: E. coli BL21(DE3)
Put plainly: DSF thermal shift. To be noted: mutant. Type of test: binding.

For the next test, the target named is T3, Brd4(2) (Homo sapiens, UniProt O60885).
T3 construct: Plasmids of the eight single BET bromodomain constructs Brd2(1), Brd2(2), Brd3(1), Brd3(2), Brd4(1), Brd4(2), Brdt(1) and Brdt(2); His6 (N); made in house; host or cells: E. coli BL21(DE3)
Put plainly: DSF thermal shift. To be noted: wild type. It counts as binding.

The next test deals with T4, brd4(1)L094A (Homo sapiens, UniProt O60885, L94A).
T4 construct: Plasmids of the eight single BET bromodomain constructs Brd2(1), Brd2(2), Brd3(1), Brd3(2), Brd4(1), Brd4(2), Brdt(1) and Brdt(2); His6 (N); made in house; host or cells: E. coli BL21(DE3)
Put plainly: DSF thermal shift. Conditions: mutant. Type of test: binding.

The target in a further test is T5, Brd4(1) (Homo sapiens, UniProt O60885).
T5 construct: Plasmids of the eight single BET bromodomain constructs Brd2(1), Brd2(2), Brd3(1), Brd3(2), Brd4(1), Brd4(2), Brdt(1) and Brdt(2); His6 (N); made in house; host or cells: E. coli BL21(DE3)
Put plainly: DSF thermal shift. It counts as binding. To be noted: wild type.

For another test, the target named is T6, WT GFP-Brd4 (Homo sapiens, UniProt O60885).
T6 construct: full length human GFP-BRD4 transfected into human osteosarcoma cells (U2OS); expressed in transfected cells; host or cells: U2OS human osteosarcoma cells
Put plainly: FRAP in transfected U2OS cells. Conditions: WT GFP-Brd4, 1 μM compound. Type of test: cell-based.

SMILES strings stand for the structures. Values joined by “and” are separate entries in the source; they are usually repeats but may differ in a detail not shown here. Equal values may be shown once. Some results are limits rather than exact numbers.

Sequence of Brd2(2)*(Leu383-Ala) (P25440 344-453 L383A limits assumed): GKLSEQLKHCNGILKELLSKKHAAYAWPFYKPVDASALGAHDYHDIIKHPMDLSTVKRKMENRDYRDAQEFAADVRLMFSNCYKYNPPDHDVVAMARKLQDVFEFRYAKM
Description for WT GFP-Brd4: The data shown represent the mean±SEM (n=35-50). Statistical significance was determined by one-tailed t tests: *<0.05; **P<0.01; ***P<0.001; n.s. not significant.
Fluorescence recovery after photobleaching (FRAP) experiments were performed in human osteosarcoma U2OS cells transfected with mammalian expression constructs encoding wild type and mutant GFP chimeras of Brd4. Cells were cultured in DMEM (Gibco) supplemented with fetal bovine serum, Penicillin/Streptamycin and L-Glutamine. Cells were seeded into glass bottom dishes (Willco) to about 40% confluency and transfected with the constructs using Effectene (QIAGEN) at least 18 h before the experiment. Treatment of cells with 1 μM compounds (in DMSO) was performed 12-15 h before the experiment. Cells without compound treatment were treated with DMSO as a vehicle control at least 15 h before the experiment. DMEM was exchanged for CO2-independent phenol red-free media (Gibco) for the experiment. […] A spot was bleached with a single pulse at 100% laser power for 0.2 s and recovery images were acquired using a coolsnap HQ camera with a 2×2 bin at 0.05 s exposure. […] FRAP data was analysed using the SoftWorX software. It was fitted to a 2-dimensional recovery curve using the method of Axelrod as implemented within the software and half-times of recovery were calculated.

In general, Kd refers to the free concentration of one partner at which half of the binding sites on the other are occupied at equilibrium, for simple one-to-one binding. As to `COC(=O)[C@H](C)[C@@H]1N=C(c2ccc(Cl)cc2)c2cc(OC)ccc2-n2c(C)nnc21` (racemic) [Compound 7, (+−)-methyl (R)-2-((S)-6-(4-chlorophenyl)-8-methoxy-1-methyl-4H-benzo[f][1,2,4]triazolo[4,3-a][1,4]diazepin-4-yl)propanoate], at Brd2(2)*(Leu383-Ala), the “ΔH Brd2(2)* (Leu383-Ala)” value is -52.76 ± 0.3601 kJ/mol; the Kd was 0.022 µM and 0.0223 µM. Further, on Brd2(1)*(Leu110-Ala), the affinity, expressed as Kd, was 0.017 µM and the “ΔH Brd2(1)* (Leu110-Ala)” value is recorded as −16780 ± 161.4 cal/mol. The “Thermal stabilization of Brd2 mutants versus wild types (FIG. 15)” value in [1] is “increased thermal shifts of the leucine to alanine mutants”. Also, the “ΔTm Brdt(1)* (L063A)” value on brdt(1)L063A is recorded as 5.8 ± 0.3 K.

With `CC[C@@H](C(=O)OC)[C@@H]1N=C(c2ccc(Cl)cc2)c2cc(OC)ccc2-n2c(C)nnc21` (racemic) [Compound 11, (+−)-methyl (R)-2-((S)-6-(4-chlorophenyl)-8-methoxy-1-methyl-4H-benzo[f][1,2,4]triazolo[4,3-a][1,4]diazepin-4-yl)butanoate], the “ΔH Brd2(2)* (Leu383-Ala)” value on Brd2(2)*(Leu383-Ala) was -44.811 ± 0.4301 kJ/mol. The figures for the Kd on Brd2(2)*(Leu383-Ala) and on Brd2(1)*(Leu110-Ala) were 0.0217 ± 0.0056 µM and 0.0427 ± 0.0078 µM, respectively. For the same compound, the “Selectivity factor Kd WT/Kd Leu/Ala” value at Brd2(2)*(Leu383-Ala) (brd2(2)L383A vs WT brd2(1)) was 105; at Brd2(2)*(Leu383-Ala) (brd2(2)L383A vs WT brd2(2)), 203; at Brd2(2)*(Leu383-Ala) (brd2(2)L383A vs WT brd3(1)), 82; at Brd2(2)*(Leu383-Ala) (brd2(2)L383A vs WT brd3(2)), 87; on Brd2(2)*(Leu383-Ala) (brd2(2)L383A vs WT brd4(1)), 150; at Brd2(2)*(Leu383-Ala) (brd2(2)L383A vs WT brd4(2)), 118. The “Selectivity factor Kd WT/Kd Leu/Ala” value at Brd2(2)*(Leu383-Ala) (brd2(2)L383A vs WT brdt(1)) was 101; on Brd2(2)*(Leu383-Ala) (brd2(2)L383A vs WT brdt(2)), 144; on Brd2(1)*(Leu110-Ala) (brd2(1)L110A vs WT brd2(1)) it was 123; at Brd2(1)*(Leu110-Ala) (brd2(1)L110A vs WT brd2(2)), 236; on Brd2(1)*(Leu110-Ala) (brd2(1)L110A vs WT brd3(1)), 96; on Brd2(1)*(Leu110-Ala) (brd2(1)L110A vs WT brd3(2)) it was 101. The “Selectivity factor Kd WT/Kd Leu/Ala” value on Brd2(1)*(Leu110-Ala) (brd2(1)L110A vs WT brd4(1)) is given as 174; on Brd2(1)*(Leu110-Ala) (brd2(1)L110A vs WT brd4(2)), 138; on Brd2(1)*(Leu110-Ala) (brd2(1)L110A vs WT brdt(1)), 117; at Brd2(1)*(Leu110-Ala) (brd2(1)L110A vs WT brdt(2)), 167. Besides, the “ΔH Brd2(1)* (Leu110-Ala)” value at Brd2(1)*(Leu110-Ala) is recorded as −16220 ± 130.9 cal/mol. Besides, the “Selectivity against all other bromodomains” value on Brd2(1)*(Leu110-Ala) (mutated Brd2(1) vs all other (wild type) bromodomains) was at least 96 fold. Moreover, in test [1], the “Thermal stabilization of Brd2 mutants versus wild types (FIG. 15)” value is reported as “increased thermal shifts of the leucine to alanine mutants”. Also, the “ΔTm Brd4(2)* (L387A)” value on brd4(2)L387A is recorded as 7.0 ± 0.1 K. For the same compound, the “ΔTm Brd4(2)” value on Brd4(2) is 1.5 ± 0.0 K. Moreover, at brd4(1)L094A, the “ΔTm Brd4(1)* (L094A)” value came to 10.0 ± 0.2 K. For the same compound, on Brd4(1), the “ΔTm Brd4(1)” value came to 1.5 ± 0.4 K. Also, on WT GFP-Brd4, the “Fluorescence recovery after photobleaching (recovery time)” value is given as “no reduction of recovery times relative to vehicle-treated cells”. For the same compound, the “ΔTm Brdt(1)* (L063A)” value on brdt(1)L063A is 5.4 ± 0.3 K.
